Tested on: HCT 116 cells transfected with a luciferase reporter under the control of an HIF-responsive sequence
Assay: HIF-luciferase assay
Assay type: cell-based
Settings: Homo sapiens; HCT 116 HIF-luciferase reporter cells, hypoxia chamber (1% O2), 24 h; in some cases means of up to four individual determinations
Experimental: HCT 116 cells were transfected in a stable manner with a plasmid which contained a luciferase reporter under the control of an HIF-responsive sequence. These cells were sown in microtitre plates [20 000 cells/cavity in RPMI 1640 medium with 10% foetal calf serum (FCS) and 100 μg/ml of hygromycin]. Incubation was carried out overnight under standard conditions (5% CO2, 21% O2, 37° C., moistened). The following morning the cells were incubated with various concentrations of the test substances (0-10 μmol/l) in a hypoxia chamber (1% O2). After 24 h, Bright Glo reagent (Promega, Wisconsin, USA) was added in accordance with the manufacturer's instructions, and after 5 min the luminescence was measured. Cells which were incubated under normoxia served as background controls.
The IC50 values from this assay for representative working examples are listed in the following table (in same cases as means of up to four individual determinations): […]

| SMILES | IC50 [nM] |
| --- | --- |
| Cc1cc(/C(F)=C/c2ccc([Si](C)(C)C)cc2)nn1Cc1ccnc(N2CCN(C3CC3)CC2)c1 [Example 106, 1-Cyclopropyl-4-{4-[(3-{(Z)-1-fluoro-2-[4-(trimethylsilyl)phenyl]vinyl}-5-methyl-1H-pyrazol-1-yl)methyl]pyridin-2-yl}piperazine] | 0.5 |
| Cc1cc(/C(F)=C/c2ccc(OC(F)(F)F)cc2)nn1Cc1cccc(C2(O)CC2)c1 [Example 48, 1-{3-[(3-{(Z)-1-Fluoro-2-[4-(trifluoromethoxy)phenyl]vinyl}-5-methyl-1H-pyrazol-1-yl)methyl]-phenyl}cyclopropanol] | 2 |
| Cc1cc(/C(F)=C/c2ccc(C(C)(C)C(F)(F)F)cc2)nn1Cc1cccc(C2(O)CC2)c1 [Example 49, 1-{3-[(3-{(Z)-1-Fluoro-2-[4-(1,1,1-trifluoro-2-methylpropan-2-yl)phenyl]vinyl}-5-methyl-1H-pyrazol-1-yl)methyl]phenyl}cyclopropanol] | 0.8 |
| CNc1ccc(Cn2nc(/C(F)=C/c3ccc(SC(F)(F)F)cc3)cc2C)cn1 [Example 82, 5-({3-[(Z)-1-Fluoro-2-{4-[(trifluoromethyl)sulphanyl]phenyl}vinyl]-5-methyl-1H-pyrazol-1-yl}-methyl)-N-methylpyridine-2-amine] | 1 |
| Cc1cc(/C(F)=C/c2ccc(OC(F)(F)F)cc2)nn1Cc1cccc(C(=O)N(C)C)c1 [Example 25, 3-[(3-{(Z)-1-Fluoro-2-[4-(trifluoromethoxy)phenyl]vinyl}-5-methyl-1H-pyrazol-1-yl)methyl]-N,N-dimethylbenzamide] | 6 |
| Cc1cc(/C(F)=C/c2ccc(C(C)(C)C(F)(F)F)cc2)nn1Cc1cccc(N2CC(O)C2)c1 [Example 16, 1-{3-[(3-{(Z)-1-Fluoro-2-[4-(1,1,1-trifluoro-2-methylpropan-2-yl)phenyl]vinyl}-5-methyl-1H-pyrazol-1-yl)methyl]phenyl}azetidin-3-ol] | 0.5 |
| CNc1ccc(Cn2nc(/C(F)=C/c3ccc(OC(F)(F)F)c(Cl)c3)cc2C)cn1 [Example 81, 5-[(3-{(Z)-2-[3-Chloro-4-(trifluoromethoxy)phenyl]-1-fluorovinyl}-5-methyl-1H-pyrazol-1-yl)-methyl]-N-methylpyridine-2-amine] | 3 |
| Cc1cc(/C(F)=C/c2ccc(OC(F)(F)F)cc2)nn1Cc1cccc(N2CCC(O)CC2)c1 [Example 12, 1-{3-[(3-{(Z)-1-Fluoro-2-[4-(trifluoromethoxy)phenyl]vinyl}-5-methyl-1H-pyrazol-1-yl)methyl]phenyl}piperidin-4-ol] | 0.3 |
| CNc1ccc(Cn2nc(/C(F)=C/c3ccc(C(C)(C)C(F)(F)F)cc3)cc2C)cn1 [Example 83, 5-[(3-{(Z)-1-Fluoro-2-[4-(1,1,1-trifluoro-2-methylpropan-2-yl)phenyl]vinyl}-5-methyl-1H-pyrazol-1-yl)methyl]-N-methylpyridine-2-amine] | 0.4 |
| CNc1ccc(Cn2nc(/C(F)=C/c3ccc(OC(F)(F)F)cc3)cc2C)cn1 [Example 79, 5-[(3-{(Z)-1-Fluoro-2-[4-(trifluoromethoxy)phenyl]vinyl}-5-methyl-1H-pyrazol-1-yl)methyl]-N-methylpyridine-2-amine] | 1 |
| Cc1cc(/C(F)=C/c2ccc(C(C)(C)C(F)(F)F)c(F)c2)nn1Cc1cccc(C2(CO)CC2)c1 [Example 58, (1-{3-[(3-{(Z)-1-Fluoro-2-[3-fluoro-4-(1,1,1-trifluoro-2-methylpropan-2-yl)phenyl]vinyl}-5-methyl-1H-pyrazol-1-yl)methyl]phenyl}cyclopropyl)methanol] | 2 |
| Cc1cc(/C(F)=C/c2ccc(C(F)(F)F)cc2)nn1Cc1cccc(C(=O)N2CCCC2)c1 [Example 30, {3-[(3-{(Z)-1-Fluoro-2-[4-(trifluoromethyl)phenyl]vinyl}-5-methyl-1H-pyrazol-1-yl)methyl]-phenyl}(pyrrolidin-1-yl)methanone] | 6 |
| Cc1cc(/C=C(\F)c2ccc(OC(F)(F)F)cc2)nn1Cc1cccc(N2CC(O)C2)c1 [Example 113, 1-{3-[(3-{(Z)-2-Fluoro-2-[4-(trifluoromethoxy)phenyl]vinyl}-5-methyl-1H-pyrazol-1-yl)methyl]-phenyl}azetidin-3-ol] | 4 |
| CNc1ccc(Cn2nc(/C(F)=C/c3ccc(N4CC(C)OC(C)C4)nc3)cc2C)cn1 (stereo not shown) [Example 95, 5-[(3-{(Z)-2-[6-(2,6-Dimethylmorpholin-4-yl)pyridin-3-yl]-1-fluorovinyl}-5-methyl-1H-pyrazol-1-yl)methyl]-N-methylpyridine-2-amine] | 0.6 |
| CNc1ccc(Cn2nc(/C(F)=C/c3ccc(C4(C(F)(F)F)CC4)cc3)cc2C)cn1 [Example 84, 5-({3-[(Z)-1-Fluoro-2-{4-[1-(trifluoromethyl)cyclopropyl]phenyl}vinyl]-5-methyl-1H-pyrazol-1-yl}methyl)-N-methylpyridine-2-amine] | 2 |
| Cc1cc(/C(F)=C/c2ccc(OC(F)(F)F)c(Cl)c2)nn1Cc1ccnc(N2CCN(C3CC3)CC2)c1 [Example 103, 1-{4-[(3-{(Z)-2-[3-Chloro-4-(trifluoromethoxy)phenyl]-1-fluorovinyl}-5-methyl-1H-pyrazol-1-yl)-methyl]pyridin-2-yl}-4-cyclopropylpiperazine] | 2.5 |
| Cc1cc(/C(F)=C/c2ccc(C(C)(C)C(F)(F)F)cc2)nn1Cc1cccc(C(=O)N2CCCC2)c1 [Example 28, {3-[(3-{(Z)-1-Fluoro-2-[4-(1,1,1-trifluoro-2-methylpropan-2-yl)phenyl]vinyl}-5-methyl-1H-pyrazol-1-yl)methyl]phenyl}(pyrrolidin-1-yl)methanone] | 5 |
| Cc1cc(/C(F)=C/c2ccc(C3(C(F)(F)F)CC3)cc2)nn1Cc1cccc(C(=O)N2CCCC2)c1 [Example 29, [3-({3-[(Z)-1-Fluoro-2-{4-[1-(trifluoromethyl)cyclopropyl]phenyl}vinyl]-5-methyl-1H-pyrazol-1-yl}methyl)phenyl](pyrrolidin-1-yl)methanone] | 5 |
| Cc1ccc(Cn2nc(/C=C(\F)c3ccc(OC(F)(F)F)cc3)cc2C)cc1 [Example 111, 3-{(Z)-2-Fluoro-2-[4-(trifluoromethoxy)phenyl]vinyl}-5-methyl-1-(4-methylbenzyl)-1H-pyrazole] | 40 |
| Cc1cc(/C(F)=C/c2ccc(OC(F)(F)F)cc2)nn1Cc1cccc(C(=O)N2CCC(O)CC2)c1 [Example 32, {3-[(3-{(Z)-1-Fluoro-2-[4-(trifluoromethoxy)phenyl]vinyl}-5-methyl-1H-pyrazol-1-yl)-methyl]phenyl}(4-hydroxypiperidin-1-yl)methanone] | 4 |
| Cc1cc(/C(F)=C/c2ccc(OC(F)(F)F)cc2)nn1Cc1cccc(C(=O)N2CCN(C)CC2)c1 [Example 42, {3-[(3-{(Z)-1-Fluoro-2-[4-(trifluoromethoxy)phenyl]vinyl}-5-methyl-1H-pyrazol-1-yl)methyl]-phenyl}(4-methylpiperazin-1-yl)methanone] | 4 |
| Cc1cc(/C(F)=C/c2ccc(SC(F)(F)F)cc2)nn1Cc1cccc(C2(CO)CC2)c1 [Example 56, {1-[3-({3-[(Z)-1-Fluoro-2-{4-[(trifluoromethyl)sulphanyl]phenyl}vinyl]-5-methyl-1H-pyrazol-1-yl}methyl)phenyl]cyclopropyl}methanol] | 2 |
